Drawing on ChEMBL document CHEMBL1201862, “PubChem BioAssay data set” (2004), this text covers EC50 and IC50 for five molecules.

Calls of active or inactive are those of the source.

Test [1] concerns the target T1, Zinc finger protein mex-5 (Caenorhabditis elegans, UniProt Q9XUB2).
T1 sequence (Q9XUB2 whole entry): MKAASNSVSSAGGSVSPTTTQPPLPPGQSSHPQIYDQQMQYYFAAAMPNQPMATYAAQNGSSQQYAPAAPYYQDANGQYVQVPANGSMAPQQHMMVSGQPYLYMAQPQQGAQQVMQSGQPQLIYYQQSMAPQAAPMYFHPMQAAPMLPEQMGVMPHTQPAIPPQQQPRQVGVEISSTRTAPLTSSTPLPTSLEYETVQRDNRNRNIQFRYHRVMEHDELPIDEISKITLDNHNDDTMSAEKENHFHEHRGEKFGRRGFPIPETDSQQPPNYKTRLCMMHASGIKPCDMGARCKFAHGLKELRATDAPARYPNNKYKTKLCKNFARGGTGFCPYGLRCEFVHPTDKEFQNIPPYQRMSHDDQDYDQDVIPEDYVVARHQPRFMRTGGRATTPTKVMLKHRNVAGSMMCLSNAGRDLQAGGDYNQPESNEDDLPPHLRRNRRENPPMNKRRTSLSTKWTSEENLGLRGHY
The test can be described thus: potency of MEX-5 RNA-binding blockers – biochemical, C. elegans, fluorescence polarization, dose response (AID 1960). Background: In fluorescence polarisation assays a small probe gives low polarisation when free and higher when bound to something large.

The target in test [2] is T2, Apoptotic protease-activating factor 1 (Homo sapiens, UniProt O14727).
T2 sequence (O14727 whole entry): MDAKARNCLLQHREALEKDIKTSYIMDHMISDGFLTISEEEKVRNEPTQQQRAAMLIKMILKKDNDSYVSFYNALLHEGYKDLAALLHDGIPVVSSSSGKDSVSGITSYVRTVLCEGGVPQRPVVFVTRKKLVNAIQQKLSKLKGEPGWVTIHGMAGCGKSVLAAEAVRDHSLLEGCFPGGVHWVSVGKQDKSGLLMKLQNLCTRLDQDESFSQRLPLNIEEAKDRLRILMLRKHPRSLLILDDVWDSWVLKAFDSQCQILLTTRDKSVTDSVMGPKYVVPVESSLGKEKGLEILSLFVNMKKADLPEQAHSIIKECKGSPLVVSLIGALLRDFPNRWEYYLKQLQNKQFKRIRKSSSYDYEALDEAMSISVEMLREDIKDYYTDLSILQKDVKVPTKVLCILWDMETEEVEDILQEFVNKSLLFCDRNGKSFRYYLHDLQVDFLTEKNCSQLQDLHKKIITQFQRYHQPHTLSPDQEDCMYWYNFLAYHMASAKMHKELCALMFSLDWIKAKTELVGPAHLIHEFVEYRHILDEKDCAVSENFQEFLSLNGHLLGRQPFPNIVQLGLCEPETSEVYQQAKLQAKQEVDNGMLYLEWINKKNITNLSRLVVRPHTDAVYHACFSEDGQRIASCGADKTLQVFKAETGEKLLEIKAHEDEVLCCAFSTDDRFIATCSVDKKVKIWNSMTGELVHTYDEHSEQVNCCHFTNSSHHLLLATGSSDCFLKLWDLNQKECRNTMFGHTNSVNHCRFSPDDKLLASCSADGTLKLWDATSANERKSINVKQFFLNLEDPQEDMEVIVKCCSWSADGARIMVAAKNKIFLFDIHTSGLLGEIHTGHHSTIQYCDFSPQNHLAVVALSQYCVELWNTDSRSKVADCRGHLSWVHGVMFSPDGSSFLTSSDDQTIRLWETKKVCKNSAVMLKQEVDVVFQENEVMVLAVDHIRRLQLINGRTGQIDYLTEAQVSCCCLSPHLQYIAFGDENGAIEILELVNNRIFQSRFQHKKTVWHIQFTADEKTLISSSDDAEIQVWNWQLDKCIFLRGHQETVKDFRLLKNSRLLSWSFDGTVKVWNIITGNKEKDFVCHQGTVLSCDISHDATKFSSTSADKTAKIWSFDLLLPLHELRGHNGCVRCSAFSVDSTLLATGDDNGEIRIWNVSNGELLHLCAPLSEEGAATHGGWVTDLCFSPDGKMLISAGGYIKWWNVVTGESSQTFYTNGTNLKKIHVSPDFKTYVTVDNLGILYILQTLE
The class given is functional.

The next test concerns the target T3, Cysteine protease ATG4B (Homo sapiens, UniProt Q9Y4P1).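 Note: Fluorescence-based dose-response confirmation assay measuring inhibition of ATG4B activity.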
T3 sequence (Q9Y4P1 whole entry): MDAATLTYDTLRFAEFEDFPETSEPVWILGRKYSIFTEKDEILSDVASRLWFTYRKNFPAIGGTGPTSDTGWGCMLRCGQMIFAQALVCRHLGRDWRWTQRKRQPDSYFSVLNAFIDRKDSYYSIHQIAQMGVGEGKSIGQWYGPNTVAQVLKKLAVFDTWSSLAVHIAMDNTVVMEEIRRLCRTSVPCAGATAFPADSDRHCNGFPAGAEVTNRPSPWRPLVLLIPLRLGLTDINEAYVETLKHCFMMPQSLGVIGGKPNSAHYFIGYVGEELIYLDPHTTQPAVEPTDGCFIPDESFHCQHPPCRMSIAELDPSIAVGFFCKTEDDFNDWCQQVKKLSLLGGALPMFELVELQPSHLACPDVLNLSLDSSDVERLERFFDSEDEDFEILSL
Type of test: functional.

In the next test the target is Phospholipase A2 (Homo sapiens, UniProt P04054). Type of test: functional.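 Note: confirmatory dose-response counterscreen on phospholipase A2, testing hits that came from an ultra-high-throughput screen for ATG4B inhibitors.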
Phospholipase A2, sequence (P04054 whole entry): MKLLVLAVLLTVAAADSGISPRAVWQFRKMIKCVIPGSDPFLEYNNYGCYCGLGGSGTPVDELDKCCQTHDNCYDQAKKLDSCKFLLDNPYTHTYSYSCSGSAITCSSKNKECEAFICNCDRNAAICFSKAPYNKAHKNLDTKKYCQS

On to `O=C1c2ccccc2C(=O)c2[nH]c(O)nc21`, for which, in test [1], the EC50 was 17.9 µM (active). Besides, the IC50 in test [2] was 6.79 µM (active).
For `N#Cc1c(N2CCCC2)nc(N)c2c(N)nc(N3CCCC3)cc12`, the IC50 at Cysteine protease ATG4B was 1.64 µM (active); on Phospholipase A2 it was 11.7 µM (active); in test [2], 0.181 µM (active).
In the case of `NS(=O)(=O)c1cc(C(=O)NC2CCSc3ccccc32)ccc1Cl` (configuration not stated), the EC50 in test [1] is 18.9 µM (inconclusive). The IC50 is 6.64 µM (active) on Cysteine protease ATG4B and 24.1 µM (inactive) on Phospholipase A2.
Consider `COC(=O)c1cc(C)nc2c1C(=O)C(=O)C=C2N1CCOCC1`, for which the results for the IC50 (at Cysteine protease ATG4B; on Phospholipase A2; in test [2]) were 4.45 µM (active), 65.6 µM (inactive) and 1.01 µM (active), respectively.
For `CCOC(=O)C1=C(C)OC2(O)c3ccccc3C(=O)C12O` (configuration not stated), the IC50 in test [2] was 2.55 µM (active).

One may read the EC50 as the midpoint of the concentration-response curve. Broadly, the IC50 is the point on the concentration scale where inhibition reaches its midpoint.
